Data: patent US20240367098A1, “CARBON DIOXIDE ABSORBENT, METHOD FOR RECOVERING CARBON DIOXIDE, AND APPARATUS FOR SEPARATING AND RECOVERING CARBON DIOXIDE” (MITSUBISHI GAS CHEMICAL COMPANY, INC., priority 2021, published 2024)

Key:
Assay type in all cases: physicochemical
[1] = Maximum carbon dioxide (CO2) release temperature of amine compound (DSC after CO2 absorption from air); conditions: amine compound stood 24 hours in air at 23° C., 50% RH; DSC 23 to 250° C., 10° C./minute, nitrogen
Procedure: A carbon dioxide concentration meter and a petri dish were placed inside an openable desiccator (Internal Dimension: 370 mm×260 mm×272 mm). […] An initial concentration of carbon dioxide was adjusted to about 400 ppm. Then, the amine compound was removed from the desiccator to obtain the amine compound with carbon dioxide absorbed. The DSC measurement was performed on the amine compound with carbon dioxide absorbed as follows, to measure the maximum carbon dioxide release temperature of the amine compound. First, the differential scanning calorimetry was performed on the amine compound using the differential thermogravimetric analyzer (Product Name: DTG-60 produced by Shimadzu Corporation) under the conditions of 23 to 250° C. of a measurement temperature range, 10° C./minute of the heating rate, and the nitrogen atmosphere. From the DSC curve obtained thereby, the temperature at which the endothermic amount associated with the desorption of carbon dioxide reached the maximum was calculated, and the temperature thereof was used as the maximum carbon dioxide release temperature of the amine compound.

[2] = Maximum endothermic temperature of amine compound (DSC); conditions: DSC 23 to 350° C., 10° C./minute, nitrogen; volatilization of the amine compound
Procedure: DSC measurements were performed on the amine compounds to measure the maximum endothermic temperature of the amine compounds as follows. First, a differential scanning calorimetry was performed on the amine compounds using a differential thermogravimetric analyzer (Product Name: DTG-60 produced by Shimadzu Corporation) under conditions of 23 to 350° C. of a measurement temperature range, 10° C./minute of a heating rate, and a nitrogen atmosphere. From the DSC curve obtained thereby, the temperature at which the endothermic amount associated with the volatilization of the amine compound reached the maximum was calculated, and the temperature thereof was used as the maximum endothermic temperature of the amine compound.

[3] = Amine value of amine compound (JIS K7237-1995 titration); conditions: 0.1 N perchloric acid-acetic acid titration
Procedure: The amine value was measured by the following measurement method in accordance with JIS K7237-1995. • (1) Dissolving 0.1 g of the amine compound in 20 mL of the acetic acid. • (2) Calculating the amine value by titrating the solution obtained in the above (1) with the 0.1 N perchloric acid-acetic acid solution using the automatic potentiometric titrator (AT-610 produced by Kyoto Electronics Manufacturing Co., Ltd.).

[4] = Acid dissociation constant (pKa) of amine compound (acid-base titration); conditions: 25±2° C., in purified water
Procedure: The acid dissociation constant of the amine compound was determined by the following method. • (1) Dissolving 0.2 g of the amine compound in 30 mL of the purified water. • (2) Calculating the acid dissociation constant (pKa) by titrating the solution obtained in the above (1) with the 0.1 N perchloric acid-acetic acid solution using the automatic potentiometric titrator (AT-610 produced by Kyoto Electronics Manufacturing Co., Ltd.).
Still, let the temperature at the time of measurement be 25±2° C.

NCCN1CCNCC1 [AEP, 2-aminoethylpiperazine]
Maximum CO2 Release Temperature [1]: 81.9 °C
Maximum Endothermic Temperature [2]: 118.4 °C
Amine Value [3]: 1154 mgKOH/g
pKa [4]: 10.1

NCCNCCNCCN [TETA, triethylenetetramine]
pKa [4]: 10.3

NCCCNCC1CCCC(CNCCCN)C1 (stereo not shown) [1,3-BAC-BisAP]
pKa [4]: 9.5

NCCCN(CCCN)CC1CCCC(CN(CCCN)CCCN)C1 (stereo not shown) [1,3-BAC-tetraAP]
Maximum CO2 Release Temperature [1]: 102.3 °C
Maximum Endothermic Temperature [2]: 298.2 °C
Amine Value [3]: 890 mgKOH/g
pKa [4]: 9.8
